Reference: ChEMBL document CHEMBL1153340, “Inhibitors of HIV-1 attachment. Part 2: An initial survey of indole substitution patterns” (Bioorg Med Chem Lett, 2009)
Converted amounts (≈) assume the structure as drawn.

Assays:
[1] = Cmax in rat at 25 mg/kg, po dosed as solution in PEG400/EtOH; format: ADME, organism-based; set-up: dose 25 mg/kg, route oral; conditions: in vivo
[2] = Cytotoxicity against human HeLa67 cells expressing CD4/CCR5 after 3 days by XTT assay; format: cell-based
[3] = system: Human immunodeficiency virus 1; assay: Antiviral activity against pseudotype HIV1 JRFL infected in human HeLa67 cells expressing CD4/CCR5 after 3 days by luciferase reporter gene assay; format: functional, organism-based; conditions: Human immunodeficiency virus 1, JRFL, HeLa67, 72 h
[4] = Clearance in rat at 5 mg/kg, iv dosed as solution in PEG400/EtOH; format: ADME, organism-based; set-up: dose 5 mg/kg, route intravenous; conditions: in vivo
[5] = Volume of distribution at steady state in rat at 5 mg/kg, iv dosed as solution in PEG400/EtOH; format: ADME, organism-based; set-up: dose 5 mg/kg, route intravenous; conditions: in vivo, read-out: Vdss
[6] = Terminal half life in rat at 5 mg/kg, iv dosed as solution in PEG400/EtOH; format: ADME, organism-based; set-up: dose 5 mg/kg, route intravenous; conditions: in vivo, read-out: beta t1/2
[7] = Mean residence time in rat at 5 mg/kg, iv dosed as solution in PEG400/EtOH; format: ADME, organism-based; set-up: dose 5 mg/kg, route intravenous; conditions: in vivo
[8] = Tmax in rat at 25 mg/kg, po dosed as solution in PEG400/EtOH; format: ADME, organism-based; set-up: dose 25 mg/kg, route oral; conditions: in vivo
[9] = Tmax in rat at 5 mg/kg, po dosed as solution in PEG400/EtOH; format: ADME, organism-based; set-up: dose 5 mg/kg, route oral; conditions: in vivo
[10] = Terminal half life in rat at 25 mg/kg, po dosed as solution in PEG400/EtOH; format: ADME, organism-based; set-up: dose 25 mg/kg, route oral; conditions: in vivo, read-out: beta t1/2
[11] = Oral bioavailability in rat at 25 mg/kg dosed as solution in PEG400/EtOH; format: ADME, organism-based; conditions: in vivo
[12] = Oral bioavailability in rat at 5 mg/kg dosed as solution in PEG400/EtOH; format: ADME, organism-based; conditions: in vivo
[13] = Permeability across human Caco-2 cells; format: ADME, cell-based; conditions: read-out: permeability
[14] = Cmax in rat at 5 mg/kg, po dosed as nanosuspension; format: ADME, organism-based; set-up: dose 5 mg/kg, route oral; conditions: in vivo
[15] = Tmax in rat at 5 mg/kg, po dosed as nanosuspension; format: ADME, organism-based; set-up: dose 5 mg/kg, route oral; conditions: in vivo
[16] = Oral bioavailability in rat at 5 mg/kg dosed as nanosuspension; format: ADME, organism-based; conditions: in vivo
[17] = Cmax in dog at 1 mg/kg, po dosed as solution in PEG400/EtOH; format: ADME, organism-based, Canis lupus familiaris; set-up: dose 1 mg/kg, route oral; conditions: in vivo
[18] = Tmax in dog at 1 mg/kg, po dosed as solution in PEG400/EtOH; format: ADME, organism-based, Canis lupus familiaris; set-up: dose 1 mg/kg, route oral; conditions: in vivo
[19] = Oral bioavailability in dog at 1 mg/kg dosed as solution in PEG400/EtOH; format: ADME, organism-based, Canis lupus familiaris; conditions: in vivo
[20] = Cmax in dog at 1 mg/kg, po dosed as micronized suspension; format: ADME, organism-based, Canis lupus familiaris; set-up: dose 1 mg/kg, route oral; conditions: in vivo
[21] = Tmax in dog at 1 mg/kg, po dosed as micronized suspension; format: ADME, organism-based, Canis lupus familiaris; set-up: dose 1 mg/kg, route oral; conditions: in vivo
[22] = Oral bioavailability in dog at 1 mg/kg dosed as micronized suspension; format: ADME, organism-based, Canis lupus familiaris; conditions: in vivo
[23] = Oral bioavailability in dog at 1 mg/kg dosed as nanosuspension; format: ADME, organism-based, Canis lupus familiaris; conditions: in vivo
[24] = Solubility in water; format: physicochemical; conditions: buffer
[25] = Solubility in poly ethylene glycol 400; format: physicochemical; conditions: polyethylene glycol 400
[26] = Cmax in dog at 1 mg/kg, po dosed as nanosuspension; format: ADME, organism-based, Canis lupus familiaris; set-up: dose 1 mg/kg, route oral; conditions: in vivo
[27] = Tmax in dog at 1 mg/kg, po dosed as nanosuspension; format: ADME, organism-based, Canis lupus familiaris; set-up: dose 1 mg/kg, route oral; conditions: in vivo

Cmax [1]: 649 ng/mL
EC50 [3]: 2.59 nM
clearance [4]: 48 mL/min/kg
Vd [5]: 0.99 L/kg
half-life [6]: 0.467 h
MRT [7]: 0.35 h
Tmax [8]: 0.883 h
Tmax [9]: 0.617 h
half-life [10]: 1.2 h
bioavailability [11]: 17%
bioavailability [12]: 9%
Papp [13]: 10 ×10⁻⁶ cm/s
Cmax [14]: 18 ng/mL
Tmax [15]: 2.83 h
bioavailability [16]: 4%
Cmax [17]: 560 ng/mL
Tmax [18]: 1.2 h
bioavailability [19]: 89%
Cmax [20]: 60 ng/mL
Tmax [21]: 4 h
bioavailability [22]: 12%
bioavailability [23]: 36%
solubility [24]: 0.005 µg/mL (≈ 1.32e-05 mM)
solubility [25]: 4600 µg/mL (≈ 12.1 mM)
Cmax [26]: 160 ng/mL
Tmax [27]: 1.8 h
SMILES: O=C(C(=O)N1CCN(C(=O)c2ccccc2)CC1)c1c[nH]c2cccc(F)c12
CC50 at 72 h [2]: > 300000 nM
